Broadly, the IC50 is the concentration needed to halve the response being measured. A high value points to lower potency.

Values joined by “and” are separate entries in the source; they are usually repeats but may differ in a detail not shown here. Identical values can stand only once.

For the assay, the target named is T1, 1-acyl-sn-glycerol-3-phosphate acyltransferase beta (Homo sapiens, UniProt O15120).
T1 sequence (O15120 whole entry): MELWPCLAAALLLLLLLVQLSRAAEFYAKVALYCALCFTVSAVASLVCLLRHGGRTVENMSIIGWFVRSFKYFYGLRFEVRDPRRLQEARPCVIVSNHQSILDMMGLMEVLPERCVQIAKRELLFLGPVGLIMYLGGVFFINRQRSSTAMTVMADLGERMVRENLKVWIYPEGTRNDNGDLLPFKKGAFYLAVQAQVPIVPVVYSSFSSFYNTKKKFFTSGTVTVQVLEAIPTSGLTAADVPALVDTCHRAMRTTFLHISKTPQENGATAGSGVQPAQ
As to the kind of experiment: Inhibitory activity against Lysophosphatidic acid acyltransferase-beta enzyme over-expressed in Sf9 insect cell membrane.
Turning to `COc1ccc(Cl)cc1-c1nc(N)nc(Nc2ccc(Cl)cc2)n1`, the IC50 was 70 nM and 45 nM.
Take `CCOc1ccc(Cl)cc1-c1nc(N)nc(Nc2ccc(Cl)cc2)n1`: inhibition was half-maximal at 260 nM (IC50). That is a sub-micromolar value.
Turning to `COc1ccc(Cl)cc1-c1cc(N)nc(Nc2ccc(Cl)cc2)n1`, 2050 nM corresponded to half-maximal inhibition (IC50).
Take `COc1ccc(Cl)cc1-c1cc(Nc2ccc(C)cc2)cc(N)n1`: the IC50 is above 40000 nM.

Source of the values: ChEMBL document CHEMBL1140395, “Diamino-C,N-diarylpyridine positional isomers as inhibitors of lysophosphatidic acid acyltransferase-beta” (Bioorg Med Chem Lett, 2005).
